{"source": "patent US7524851B2", "about": "(Robert Bosch Gesellschaft fur Medizinische Forschung (RBMF), priority 2003, dated 2009)", "key": {"IκB": {"system": "IκB", "assay": "IκB phosphorylation and expression (Western blot)", "assay_type": "cell-based, human", "conditions": "3 days", "procedure": "The cells were then washed in PBS, resuspended in 1 ml of T40E10N150 buffer (40 mM Tris-HCl [pH 7.9], 10 mM EDTA [pH 8.0], 150 mM NaCl), put on ice for 5 minutes, and centrifuged for 4 minutes at 4° C. at 1,000 rpm. The cell pellet was then resuspended on ice in 70 μl of buffer (10 mM HEPES [pH 8.0], 400 mM NaCl, 0.1 mM EDTA, 5% glycerol, 1 mM DTT, 1 mM PMSF) and centrifuged at 15,000 rpm for 30 minutes at 4° C. The protein concentrations in supernatants were determined with the Bio-Rad Protein Assay (Bio-Rad; Munich, Germany).\nWestern blots: Equal amounts of extract (30 μg) were added to 8 μl of electrophoresis sample buffer (Firma Roth; Karlsruhe, Germany). After boiling, the extracts were loaded on 15% SDS-PAGE gels and electrophoretically separated. Proteins were transferred to nitrocellulose membranes, and detection was performed with the ECL Western blotting analysis system (Amersham). […]"}, "STAT-3": {"system": "STAT-3", "assay": "Rac1-bound STAT-3 (PAK pull-down, immunoblot)", "assay_type": "cell-based, human", "conditions": "primary T cells, 3 days", "procedure": "FIG. 7. […] Purified CD4^+ T lymphocytes were stimulated with IL-2 and antibodies to CD3 or IL-2 plus antibodies to CD3 and CD28 for 3 days. […] GTP-bound Ras (Ras-GTP) was analyzed using Raf RGD to determine Ras activation. […] Similarly, Ras was obtained using Raf RGD agarose followed by analysis of [^3H]GTP-bound Ras by scintillation counting.\nCell lysates were incubated with 10 μg/ml PAK-1 agarose (Rac assays) or 10 μg/mg Raf RBD agarose (Ras assay) for 60 minutes (Rac assays) or 30 minutes (Ras assays) at 4° C. Agarose beads were collected by centrifugation followed by denaturation, boiling of the samples, and SDS-PAGE analysis."}, "caspase-9": {"system": "caspase-9", "assay": "Fluorometric protease assay, caspase-9 activity in T lymphocytes", "assay_type": "cell-based, human", "conditions": "CD3/CD28/rIL-2 stimulated T cells, 5 days", "procedure": "(§1) Caspase-3 proteolytic activity was determined at day 5 by the caspase-3/CPP 32 fluorometric protease assay (Bio Source; Worcester, Mass., USA) according to the manufacturer's protocol. Caspase-8 and caspase-9 proteolytic activity were assessed in parallel by the corresponding fluorometric protease assays (Bio Source)."}, "NF-κB p50/p65": {"system": "NF-κB p50/p65", "assay": "NF-κB electrophoretic mobility shift assay", "assay_type": "cell-based, human", "conditions": "EMSA", "method": "Isolation of nuclear proteins: T lymphocytes were washed twice in cold PBS and resuspended in 500 μl of buffer A (10 mM HEPES, 1.5 mM MgCl2, 19 mM KCl, 0.5 mM PMSF, 1 mM DTT) followed by addition of 20 μl of Triton X-100 (Sigma-Aldrich) and incubation on ice for 5 minutes. Cells were centrifuged for 10 minutes at 4° C., followed by the resuspension of the nuclear pellet in buffer C (20 mM HEPES, 1.5 mM MgCl2, 0.2 mM EDTA, 25% glycerol, 0.5 mM PMSF, 1 mM DTT). Finally, the nuclei were homogenized using mini stir bars for 1 hour at 4° C. followed by centrifugation at 15,000 rpm for 15 minutes at 4° C. The concentration of nuclear proteins in supernatants was assessed using the Bio-Rad Protein Assay.\nElectrophoretic mobility shift assays: Electrophoretic mobility shift assays (EMSAs) were performed as described in Atreya et al., supra. Oligonucleotides for EMSA were obtained from Santa Cruz Biotech (Heidelberg, Germany). The sequences were as follows: NF-κB, 5′-[sequence]-3′ (SEQ ID NO: 1) and 3′-[sequence]-5′ (SEQ ID NO: 2); and SP-1,5′-[sequence]-3′ (SEQ ID NO: 3) and 3′-[sequence]-5′ (SEQ ID NO: 4). Oligonucleotides were end labeled with [^32P]γ-ATP (>5000 Ci/mmol; Amersham; Arlington Heights, Ill., USA) using T4 polynucleotide kinase (New England Biolabs; Beverly, Mass., USA). […]"}, "caspase-8": {"system": "caspase-8", "assay": "Fluorometric protease assay, caspase-8 activity in T lymphocytes", "assay_type": "cell-based, human", "conditions": "CD3/CD28/rIL-2 stimulated T cells, 5 days; on average", "procedure": "as §1"}, "caspase-3": {"system": "caspase-3", "assay": "Fluorometric protease assay, caspase-3 activity in T lymphocytes", "assay_type": "cell-based, human", "conditions": "CD3/CD28/rIL-2 stimulated T cells, 5 days", "procedure": "as §1"}, "Rac1": {"system": "Rac1", "conditions": "primary T cells upon azathioprine treatment"}, "bcl-xL mRNA": {"system": "bcl-xL mRNA", "conditions": "anti-CD3- plus anti-CD28-activated T lymphocytes", "method": "The mRNA of T cells was extracted at the indicated time points using the Tri-reagent (Sigma-Aldrich) according to the manufacturer's protocol. In brief, the cell pellet was lysed in 1 ml of Tri-reagent before addition of 200 μl of chloroform (Sigma-Aldrich; Steinheim, Germany). Each sample was gently mixed before incubation (for 5 minutes at 20° C.) and centrifugation (12,000 g for 15 minutes at 4° C.). The aqueous phase was transferred to a fresh tube, and 0.5 ml of isopropanol (Sigma-Aldrich) was added. Samples were allowed to stand for 5 minutes at room temperature before centrifugation at 12,000 g (for 10 minutes at 4° C.). The supernatants were removed, and the RNA pellet was washed in 75% ethanol.\nGene arrays: mRNA from T lymphocytes was analyzed by the human apoptosis expression array (R&D) as follows. To generate radiolabeled cDNA, 4 μl of human apoptosis-specific primers (R&D) were added to 4 μg of the isolated mRNA, heated in a thermal cycler at 90° C. for 2 minutes, and incubated at 42° C. for 180 minutes in the presence of reverse transcriptase buffer (50 mM Tris-HCl, 8 mM MgCl2, 30 mM KCl, 1 mM DTT), 333 μM dATP, 333 μM dGTP, 333 μM dTTP, 1.67 μM dCTP, 20 U of RNasin, 20 μCi of ^32P-labeled dCTP (Amersham; Freiburg, Germany), and 50 U of AMV reverse transcriptase. […]"}, "[1]": {"conditions": "after oral administration and absorption; non-enzymatic attack by sulfhydryl-containing compounds; cited from earlier work"}}}
{"smiles": "Sc1ncnc2nc[nH]c12", "note": "[6-MP, 6-mercaptopurine]", "values": [{"measurement": "IκB phosphorylation", "setting": "IκB", "value": "suppressed"}, {"measurement": "IκB protein expression levels", "setting": "IκB", "value": "unchanged"}, {"measurement": "Rac1-bound STAT-3", "setting": "STAT-3", "value": "Downregulation"}, {"measurement": "caspase-9 activity", "setting": "caspase-9", "value": "marked induction"}, {"measurement": "nuclear expression of the p65 subunit of NF-κB", "setting": "NF-κB p50/p65", "value": "downregulated"}, {"measurement": "CD28-induced activation of NF-κB p50/p65", "setting": "NF-κB p50/p65; nuclear proteins after 3 days", "value": "suppressed"}, {"measurement": "induction of caspase-8", "setting": "caspase-8", "value": "less pronounced"}, {"measurement": "caspase-3 activity", "setting": "caspase-3", "value": "marked induction"}]}
{"smiles": "Cn1cnc([N+](=O)[O-])c1Sc1ncnc2nc[nH]c12", "note": "[azathioprine, Azathioprine]", "values": [{"measurement": "Rac1-bound STAT-3", "setting": "STAT-3", "value": "reduced"}, {"measurement": "6-TG detected in Rac1 pull-downs", "setting": "Rac1", "value": "approximately 120 pg of 6-TG per microgram"}, {"measurement": "bcl-xL mRNA expression", "setting": "bcl-xL mRNA", "value": "strongly suppressed"}, {"measurement": "mRNA expression of other genes such as IL-2R, TACI, and GAPDH", "setting": "bcl-xL mRNA", "value": "not affected"}, {"measurement": "conversion to 6-MP", "setting": "[1]", "value": "approximately 90%"}]}
